Experimental data published in patent publication US9493528B2, “Microphthalmia-associated transcription factor-derived peptide and composition containing same” (KNU-INDUSTRY COOPERATION FOUNDATION, priority 2013, dated 2016).
No end group written: not given here.

How the values were obtained:
[1] = test system: mouse melanoma cell line B16F1; assay: Inhibitory activity against melanin formation in mouse melanoma cell line B16F1; format: cell-based; details: B16F1 cells, α-MSH 100 nM, peptide 0.1, 1 and 10 μM, 24 hours, FIG. 5
Experimental: B16F1 cells (Korean Cell Line Bank, Seoul) were added to each well of a 6-well plate (1.5×10^5 cells per well), along with 2 ml of DMEM, and then incubated in a 5% CO2 incubator at 37° C. for 24 hours. α-MSH (Sigma Co, MO, USA) (100 nM) was treated to each well, along with the peptide of SEQ ID NO: 3 in the final concentrations of 0.1, 1, and 10 μM. The groups in which α-MSH (100 nM) and foskolin (Sigma Co, MO, USA) (10 μM) were respectively treated were used as positive controls. And also, the group having no treatment (i.e., no α-MSH (100 nM) treatment) and the group in which α-MSH (100 nM) and Kojic acid (Sigma Co, MO, USA) (800 μM) were treated were used as negative controls. After additionally incubating the plate for 24 hours, the pictures of each culture ware taken so as to compare the respective levels of melanin formation.

[2] = test system: tyrosinase; assay: Inhibitory activity against tyrosinase activity in mouse melanoma cell line B16F1 (L-DOPA); format: cell-based; details: B16F1 cells, α-MSH, 72 hours, extracts with L-DOPA 2 hours, absorbance at 490, FIG. 6
Experimental: B16F1 cells (Korean Cell Line Bank, Seoul) were added to each well of a 24-well plate (5×10^4 cells per well), along with 1 ml of DMEM, and then stabilized through incubating in a 5% CO2 incubator at 37° C. for 24 hours. α-MSH (Sigma Co, MO, USA), a melanocyte-stimulating hormone, was treated to each well, along with the peptide of SEQ ID NO: 3 in predetermined concentrations. After incubating the plate for 72 hours, the proteins were extracted therefrom. The obtained extracts were added to each well of a 96-well plate and then treated with a L-dihydroxyphenylalanine (L-DOPA) solution (100 μL) at 37° C. for 2 hours. After 2 hours, the pictures thereof were taken and the tyrosinase activities thereof were measured at […] with a microreader.

[3] = test system: tyrosinase (TYR); assay: Gene expression of tyrosinase in B16F1 cells (RT-PCR); format: cell-based, mouse; details: α-MSH, 72 hours, FIG. 7
Experimental: (§1) B16F1 cells (Korean Cell Line Bank, Seoul) were added to each well of a 6-well plate (1.5×10^5 cells per well), along with 2 ml of DMEM, and then stabilized through incubating in a 5% CO2 incubator at 37° C. for 24 hours. α-MSH (Sigma Co, MO, USA), a melanocyte-stimulating hormone, was treated to each well, along with the peptide of SEQ ID NO: 3 in predetermined concentrations. After incubating the plate for 72 hours, the total RNAs were extracted therefrom and then cDNAs were synthesized. The cDNA syntheses were carried out with a Reverse Transcription Master premix (Elpisbiotech, Daejeon, Korea). Using each synthesized cDNA as a template, reverse transcription polymerase chain reaction (RT-PCR) was carried out with a ROTOR Q GENE apparatus. Each RT-PCR solution was prepared by mixing 1 μl of cDNA, 10 μl of TOPreal qRT-PCR2X premix (Enzynomics, Daejeon, Korea), 2 μl of primer set (10 pmol) and 7 μl of D. W. The RT-PCR was carried out as follows: initially at 94° C. for 10 minutes; and then at 94° C. for 10 seconds, at 58° C. for 30 seconds, and at 72° C. for 1 minute; 40 cycles.
(§2) The results obtained by measuring the gene expressions of tyrosinase, TRP-1 and TRP-2 through the above RT-PCR are shown in FIG. 7.

[4] = test system: TRP-1; assay: Gene expression of TRP-1 in B16F1 cells (RT-PCR); format: cell-based, mouse; details: α-MSH, 72 hours, FIG. 7
Experimental: as §1, §2

[5] = test system: TRP-2; assay: Gene expression of TRP-2 in B16F1 cells (RT-PCR); format: cell-based, mouse; details: α-MSH, 72 hours, FIG. 7
Experimental: as §1, §2

[6] = test system: B16F1 cells; assay: Inhibitory activity against proliferation of mouse melanoma cell line B16F1 (CCK-8); format: cell-based; details: peptide 0.01, 0.1, 1 or 10 μM, 24, 48 and 72 hours, CCK-8, FIG. 8
Experimental: B16F1 cells (Korean Cell Line Bank, Seoul) were added to each well of a 96-well plate (5×10^3 cells per well), along with 100 μL of DMEM, and then incubated in a 5% CO2 incubator at 37° C. for 24 hours. The respective wells were treated with 10 μL of each peptide solution of SEQ ID NO: 3 having a concentration of 0.01, 0.1, 1, or 10 μM. After incubating the plate for 24, 48, and 72 hours, each well was treated with CCK-8 (Dojindo Laboratories, Japan) for 1 hour and then the absorbance thereof was measured at 450 nm, using a Spectramax plus 190 plate reader (Molecular Devices, USA).

[7] = test system: BCL-2; assay: Inhibitory activity against BCL-2 expression in mouse melanoma cell line B16F1 (Western blotting); format: cell-based; details: B16F1 cells, UV-B 50 mJ/cm^2 plus peptide in predetermined concentrations, 24 hours, Western blot, FIG. 9
Experimental: The expression of BCL-2, playing a critical role in proliferation of melanocytes, is controlled by MITF. Whether the BCL-2 expression in melanocytes is inhibited by the treatment of the peptide of the present invention was evaluated, using a Western blotting assay. B16F1 cells (Korean Cell Line Bank, Seoul) were added to each well of a 6-well plate (1.5×10^5 cells per well), along with 2 ml of DMEM, and then incubated in a 5% CO2 incubator at 37° C. for 24 hours. Each well was treated with UV-B irradiation (50 mJ/cm^2) and the peptide of SEQ ID NO: 3 in predetermined concentrations. After incubating the plate for 24 hours, the proteins were extracted therefrom. The extracts were subject to the Western blotting assay using an anti-BCL-2 antibody (Santa Cruz Co., CA, USA).

Row | Substance | melanin formation (colour of cell culture) [1] | tyrosinase activity [2] | expression of tyrosinase (TYR) [3] | expression of TRP-1 [4] | expression of TRP-2 [5] | proliferation of B16F1 cells [6] | expression levels of BCL-2 [7]
1 | Lys-Gly-Arg (KGR; Peptide fragment) [SEQ ID NO: 3, MITF-derived peptide fragment] | decreased according to the concentrations of the peptide | decreased in concentration-dependent manner | decreased in concentration-dependent manner | decreased in concentration-dependent manner | decreased in concentration-dependent manner | decreased in concentration-dependent manner | reduced
2 | α-melanocyte stimulating hormone (SYSMEHFRWGKPV; ends and bridges not checked; UniProt P01189 138-150, looked up) [α-MSH, melanocyte-stimulating hormone (Sigma), used as stimulus / positive control, reference compound] |  | increased | increased | increased | increased |  | 
